# How the values were obtained:
# [1] = test system: barnyardgrass; assay: Test A preemergence; assay type: in vivo, Echinochloa crus-galli; settings: preemergence; for Barnyardgrass plant response rating (0 to 100 scale, 0 is no effect, 100 is complete control): 125 g ai/ha, visual injury approx. 10 days after treatment; for Barnyardgrass plant response rating: 500 g ai/ha, visual injury after approx. 10 days, 0 to 100 scale (0 no effect, 100 complete control)
# Summary of the method: (§1)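 Visual injury rating, 0–100 (0 no effect, 100 complete control), vs untreated controls ~10 days after treatment in greenhouse. Pre: directed soil spray on seeded loam/sand. Post: 2–10 cm plants, 1–2 leaf stage. Formulation: non-phytotoxic solvent mix + surfactant.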
# [2] = test system: crabgrass, large; assay: Test A preemergence; assay type: in vivo, Digitaria sanguinalis; settings: preemergence; for Crabgrass, Large plant response rating (0 to 100 scale): 125 g ai/ha, visual injury approx. 10 days after treatment; for Crabgrass, Large plant response rating: 500 g ai/ha, visual injury after approx. 10 days, 0 to 100 scale (0 no effect, 100 complete control)
# Summary of the method: as §1
# [3] = test system: foxtail, giant; assay: Test A preemergence; assay type: in vivo, Setaria faberii; settings: preemergence; for Foxtail, Giant plant response rating (0 to 100 scale): 125 g ai/ha, visual injury approx. 10 days after treatment; for Foxtail, Giant plant response rating: 500 g ai/ha, visual injury after approx. 10 days, 0 to 100 scale (0 no effect, 100 complete control)
# Summary of the method: as §1
# [4] = test system: morningglory; assay: Test A preemergence; assay type: in vivo, Ipomoea spp.; settings: preemergence; for Morningglory plant response rating (0 to 100 scale): 125 g ai/ha, visual injury approx. 10 days after treatment
# Summary of the method: as §1
# [5] = test system: pigweed; assay: Test A preemergence; assay type: in vivo, Amaranthus retroflexus; settings: preemergence; for Pigweed plant response rating (0 to 100 scale): 125 g ai/ha, visual injury approx. 10 days after treatment
# Summary of the method: as §1
# [6] = test system: velvetleaf; assay: Test A preemergence; assay type: in vivo, Abutilon theophrasti; settings: preemergence; for Velvetleaf plant response rating (0 to 100 scale): 125 g ai/ha, visual injury approx. 10 days after treatment
# Summary of the method: as §1
# [7] = test system: wheat; assay: Test A preemergence; assay type: in vivo, Triticum aestivum; settings: preemergence; for Wheat plant response rating (0 to 100 scale): 125 g ai/ha, visual injury approx. 10 days after treatment
# Summary of the method: as §1
# [8] = test system: corn; assay: Test A preemergence; assay type: in vivo, Zea mays; settings: preemergence; for Corn plant response rating (0 to 100 scale): 125 g ai/ha, visual injury approx. 10 days after treatment; for Corn plant response rating: 500 g ai/ha, visual injury after approx. 10 days, 0 to 100 scale (0 no effect, 100 complete control)
# Summary of the method: as §1
# [9] = test system: barnyardgrass; assay: Test A postemergence; assay type: in vivo, Echinochloa crus-galli
# Summary of the method: as §1
# [10] = test system: crabgrass, large; assay: Test A postemergence; assay type: in vivo, Digitaria sanguinalis
# Summary of the method: as §1
# [11] = test system: foxtail, giant; assay: Test A postemergence; assay type: in vivo, Setaria faberii
# Summary of the method: as §1
# [12] = test system: morningglory; assay: Test A postemergence; assay type: in vivo, Ipomoea spp.
# Summary of the method: as §1
# [13] = test system: pigweed; assay: Test A postemergence; assay type: in vivo, Amaranthus retroflexus
# Summary of the method: as §1
# [14] = test system: velvetleaf; assay: Test A postemergence; assay type: in vivo, Abutilon theophrasti
# Summary of the method: as §1
# [15] = test system: wheat; assay: Test A postemergence; assay type: in vivo, Triticum aestivum
# Summary of the method: as §1
# [16] = test system: corn; assay: Test A postemergence; assay type: in vivo, Zea mays
# Summary of the method: as §1
# [17] = test system: rice; assay: Test B flood; assay type: in vivo, Oryza sativa; settings: 250 g ai/ha, visual rating on 0 to 100 scale (0 no effect, 100 complete control), 13 to 15 days
# Summary of the method: (§2)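 2-leaf plants; pots flooded 3 cm over soil; compound added to paddy water, depth kept constant. Greenhouse 13–15 d. Visual rating vs controls, 0–100 scale (100 = complete control); dash = no result.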
# [18] = test system: sedge, umbrella; assay: Test B flood; assay type: in vivo, Cyperus difformis; settings: 250 g ai/ha, visual rating on 0 to 100 scale (0 no effect, 100 complete control), 13 to 15 days
# Summary of the method: as §2
# [19] = test system: ducksalad; assay: Test B flood; assay type: in vivo, Heteranthera limosa; settings: 250 g ai/ha, visual rating on 0 to 100 scale (0 no effect, 100 complete control), 13 to 15 days
# Summary of the method: as §2
# [20] = test system: barnyardgrass; assay: Test B flood; assay type: in vivo, Echinochloa crus-galli; settings: 250 g ai/ha, visual rating on 0 to 100 scale (0 no effect, 100 complete control), 13 to 15 days
# Summary of the method: as §2
# [21] = test system: rice; assay: Test C flooded paddy test; assay type: in vivo, Oryza sativa; settings: Flood
# Summary of the method: (§3)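 Pots were flooded to 3 cm above the soil surface at treatment, compound applied directly to the paddy water, and that depth held throughout. Plants were kept in a greenhouse for 13 to 15 days, then visually rated against untreated controls.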
# [22] = test system: sedge, umbrella; assay: Test C flooded paddy test; assay type: in vivo, Cyperus difformis; settings: Flood
# Summary of the method: as §3
# [23] = test system: ducksalad; assay: Test C flooded paddy test; assay type: in vivo, Heteranthera limosa; settings: Flood
# Summary of the method: as §3
# [24] = test system: barnyardgrass; assay: Test C flooded paddy test; assay type: in vivo, Echinochloa crus-galli; settings: Flood
# Summary of the method: as §3
# [25] = Postemergence, 500 g ai/ha, 0 to 100 scale (0 no effect, 100 complete control)
# [26] = postemergence, 125 g ai/ha, about 10 days, visual rating on 0 to 100 scale (0 no effect, 100 complete control)
# [27] = Postemergence, 125 g ai/ha, 0 to 100 scale, 0 no effect, 100 complete control
# [28] = 31 g ai/ha, scale 0 to 100 (0 no effect, 100 complete control)
# [29] = 62 g ai/ha, scale 0 to 100 (0 no effect, 100 complete control)
# [30] = 125 g ai/ha, scale 0 to 100 (0 no effect, 100 complete control)
# [31] = 500 g ai/ha, visual injury after approx. 10 days, 0 to 100 scale (0 no effect, 100 complete control)
smiles,measurement,setting,value
CCc1cc(C(=O)NC)nn1Cc1ccnc(C(F)(F)F)c1 [Compound 204],"Barnyardgrass plant response rating (0 to 100 scale, 0 is no effect, 100 is complete control)",[1],0
same,Barnyardgrass plant response rating,[1],80
same,"Crabgrass, Large plant response rating (0 to 100 scale)",[2],100
same,"Crabgrass, Large plant response rating",[2],100
same,"Foxtail, Giant plant response rating (0 to 100 scale)",[3],50
same,"Foxtail, Giant plant response rating",[3],100
same,Morningglory plant response rating (0 to 100 scale),[4],30
same,Pigweed plant response rating (0 to 100 scale),[5],100
same,Velvetleaf plant response rating (0 to 100 scale),[6],10
same,Wheat plant response rating (0 to 100 scale),[7],0
same,Corn plant response rating (0 to 100 scale),[8],0
same,Corn plant response rating,[8],10
same,Barnyardgrass plant response rating,[9]; [25],50
same,Barnyardgrass plant response rating,[9]; [26],10
same,"Crabgrass, Large plant response rating",[10]; [25],80
same,"Crabgrass, Large plant response rating",[10]; [26],10
same,"Foxtail, Giant plant response rating",[11]; [25],70
same,"Foxtail, Giant plant response rating",[11]; [26],10
same,Morningglory plant response rating,[12]; [27],80
same,Morningglory plant response rating,[12]; [25],90
same,Pigweed plant response rating,[13]; [27],90
same,Pigweed plant response rating,[13]; [25],90
same,Velvetleaf plant response rating,[14]; [27],40
same,Velvetleaf plant response rating,[14]; [25],50
same,Wheat plant response rating,[15]; [27],0
same,Wheat plant response rating,[15]; [25],10
same,Corn plant response rating,[16]; [25],30
same,Corn plant response rating,[16]; [26],10
same,"Plant response rating, Rice",[17],0
same,"Plant response rating, Sedge, Umbrella",[18],90
same,"Plant response rating, Ducksalad",[19],95
same,"Plant response rating, Barnyardgrass",[20],0
same,"Plant response rating, Rice",[21]; [28],0
same,"Plant response rating, Rice",[21]; [29],0
same,"Plant response rating, Rice",[21]; [30],0
same,"Plant response rating, Rice","[21]; 250 g ai/ha, scale 0 to 100",0
same,"Plant response rating, Sedge, Umbrella",[22]; [28],0
same,"Plant response rating, Sedge, Umbrella",[22]; [29],60
same,"Plant response rating, Sedge, Umbrella",[22]; [30],80
same,"Plant response rating, Sedge, Umbrella","[22]; 250 g ai/ha, scale 0 to 100",80
same,"Plant response rating, Ducksalad",[23]; [28],0
same,"Plant response rating, Ducksalad",[23]; [29],0
same,"Plant response rating, Ducksalad",[23]; [30],50
same,"Plant response rating, Ducksalad","[23]; 250 g ai/ha, scale 0 to 100",90
same,"Plant response rating, Barnyardgrass",[24]; [28],0
same,"Plant response rating, Barnyardgrass",[24]; [29],0
same,"Plant response rating, Barnyardgrass",[24]; [30],0
same,"Plant response rating, Barnyardgrass","[24]; 250 g ai/ha, scale 0 to 100",0
O=C(NC1CC1)c1cc(I)n(Cc2cccc(C(F)(F)F)c2)n1 [Compound 180],"Barnyardgrass plant response rating (0 to 100 scale, 0 is no effect, 100 is complete control)",[1],0
same,Barnyardgrass plant response rating,[1],40
same,"Crabgrass, Large plant response rating (0 to 100 scale)",[2],30
same,"Crabgrass, Large plant response rating",[2],100
same,"Foxtail, Giant plant response rating (0 to 100 scale)",[3],10
same,"Foxtail, Giant plant response rating",[3],90
same,Morningglory plant response rating (0 to 100 scale),[4],0
same,Morningglory plant response rating,[4]; [31],0
same,Pigweed plant response rating (0 to 100 scale),[5],10
same,Pigweed plant response rating,[5]; [31],100
same,Velvetleaf plant response rating (0 to 100 scale),[6],0
same,Velvetleaf plant response rating,[6]; [31],0
same,Wheat plant response rating (0 to 100 scale),[7],0
same,Wheat plant response rating,[7]; [31],0
same,Corn plant response rating (0 to 100 scale),[8],0
same,Corn plant response rating,[8],0
same,Barnyardgrass plant response rating,[9]; [25],30
same,Barnyardgrass plant response rating,[9]; [26],0
same,"Crabgrass, Large plant response rating",[10]; [25],30
same,"Crabgrass, Large plant response rating",[10]; [26],10
same,"Foxtail, Giant plant response rating",[11]; [25],30
same,"Foxtail, Giant plant response rating",[11]; [26],10
same,Morningglory plant response rating,[12]; [25],80
same,Morningglory plant response rating,[12]; [26],0
same,Pigweed plant response rating,[13]; [25],100
same,Pigweed plant response rating,[13]; [26],70
same,Velvetleaf plant response rating,[14]; [25],30
same,Velvetleaf plant response rating,[14]; [26],0
same,Wheat plant response rating,[15]; [25],0
same,Wheat plant response rating,[15]; [26],0
same,Corn plant response rating,[16]; [25],0
same,Corn plant response rating,[16]; [26],0
same,"Plant response rating, Rice",[17],0
same,"Plant response rating, Sedge, Umbrella",[18],0
same,"Plant response rating, Ducksalad",[19],0
same,"Plant response rating, Barnyardgrass",[20],0

# — patent US20150105252A1, “SUBSTITUTED PYRAZOLES AS HERBICIDES” (E I DU PONT DE NEMOURS AND COMPANY, priority 2013, published 2015)
